Data published in patent publication US20050277660A1, “Novel tetrahydroquinoline derivatives” (priority 2002, published 2005).

Tests used:
[1] = test system: Orchiectomized (ORX) Rats; experiment: Effect on prostate, femoral bone mineral density and levator ani muscle in ORX rats, subcutaneous (Test Example 2); format: in vivo, rat; details: 4 weeks; for Femoral bone mineral density / Levator ani muscle weight / Prostate weight: 5 days per week, Mean ± SD; for Femoral bone mineral density: DEXA, right femur
Text: (§1) Effect on Prostate, Femoral Bone Mineral Density, and Levator Ani Muscle in Orchiectomized (ORX) Rats
(§2) Testes were removed from 12-week-old male SD rats. […] The compound of the Example and the DHT were each dissolved in dimethyl sulfoxide, and then diluted 10-fold with olive oil. The resulting solution of each concentration was used in the test. In an ORX control group, dimethyl sulfoxide diluted 10-fold with olive oil was used for the test.

[2] = test system: Orchiectomized (ORX) Rats; experiment: Effect on prostate, femoral bone mineral density and levator ani muscle in ORX rats, subcutaneous (Test Example 3); format: in vivo, rat; details: 4 weeks; for Femoral bone mineral density / Levator ani muscle weight / Prostate weight: 5 days per week, Mean ± SD; for Femoral bone mineral density: DEXA, right femur
Text: as §1
as §2, with “compounds” for “compound”, “Examples” for “Example”

[3] = test system: Orchiectomized (ORX) Rats; experiment: Effect of oral administration on prostate, femoral bone mineral density and levator ani muscle in ORX rats (Test Example 4); format: in vivo, rat; details: 30 mg/kg orally twice daily, 4 weeks
Experimental: Effect of the Oral Administration on Prostate, Femoral Bone Mineral Density, and Levator Ani Muscle in Orchiectomized (ORX) Rats
Testes were removed from 12-week-old male SD rats. From the following day onward, the compound of Example 16 (30 mg/5 ml/kg) was orally administered twice daily for 4 consecutive weeks on 7 days per week. The test compound was suspended in a 0.5% methylcellulose solution as a solvent, and used in the test. In an ORX control group, a 0.5% methylcellulose solution (5 ml/kg) was administered. The rats, which had not been orchiectomized, but had been subjected to laparotomy, followed by closure of the abdomen, were used as a sham control group. On the next day after final administration, the wet weights of the ventral prostate and the levator ani muscle were measured, and the bone mineral density of the right femur was measured by the DEXA method (dual energy X-ray absorptiometry), to evaluate the in vivo effect of the compound of Example 16.

[4] = target: T1, Rat Androgen Receptors (Rat AR) (Rattus norvegicus, UniProt P15207); experiment: Test for competitive binding to rat androgen receptors (Test Example 1); details: 100×(IC50 of bicalutamide)/(IC50 of compound); bicalutamide taken as 100; 3H-testosterone, rat prostate AR fraction
T1 construct: from tissue; host or cells: prostate of orchiectomized male SD rats (100,000 x g supernatant of the homogenate)
T1 sequence (P15207 1-902): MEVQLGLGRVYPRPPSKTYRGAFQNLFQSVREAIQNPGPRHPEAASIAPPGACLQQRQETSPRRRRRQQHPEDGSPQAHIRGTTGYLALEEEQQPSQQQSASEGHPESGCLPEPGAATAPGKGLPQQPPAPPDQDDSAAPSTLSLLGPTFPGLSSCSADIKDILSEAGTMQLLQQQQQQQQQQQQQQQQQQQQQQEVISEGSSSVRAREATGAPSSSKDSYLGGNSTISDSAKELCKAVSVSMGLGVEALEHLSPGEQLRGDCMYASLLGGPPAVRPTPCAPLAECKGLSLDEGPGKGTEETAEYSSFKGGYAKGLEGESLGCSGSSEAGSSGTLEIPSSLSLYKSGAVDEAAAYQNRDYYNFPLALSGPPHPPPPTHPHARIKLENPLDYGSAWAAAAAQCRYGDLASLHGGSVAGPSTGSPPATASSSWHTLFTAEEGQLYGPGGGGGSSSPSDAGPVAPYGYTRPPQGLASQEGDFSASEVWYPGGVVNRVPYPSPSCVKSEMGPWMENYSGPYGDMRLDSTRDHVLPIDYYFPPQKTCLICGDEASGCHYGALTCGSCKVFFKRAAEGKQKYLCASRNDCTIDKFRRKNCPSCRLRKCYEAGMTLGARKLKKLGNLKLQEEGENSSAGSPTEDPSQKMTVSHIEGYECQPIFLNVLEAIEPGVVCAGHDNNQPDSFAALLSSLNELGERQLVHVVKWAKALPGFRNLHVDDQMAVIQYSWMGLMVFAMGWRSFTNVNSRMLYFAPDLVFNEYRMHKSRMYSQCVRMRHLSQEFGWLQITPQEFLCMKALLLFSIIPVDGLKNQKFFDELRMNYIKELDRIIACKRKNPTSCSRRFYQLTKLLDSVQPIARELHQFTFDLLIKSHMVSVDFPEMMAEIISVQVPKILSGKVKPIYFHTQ
Experimental: Test for Competitive Binding to Rat Androgen Receptors (Rat AR)
Preparation of rat AR fraction: Prostates were harvested into ice-cooled ET buffer (10 mM Tris, 1 mM EDTA, 5 mM DTT, 10 mM sodium molybdate, pH 7.4) 3 days after orchiectomy in 11-week-old male SD rats. The prostate was finely cut, and ET buffer was added, whereafter the mixture was homogenized using a homogenizer. The homogenate was ultracentrifuged (100,000×g, 60 min, 4° C.), and the supernatant was used as a rat AR fraction (hereinafter referred to as ARF).
Binding test: ^3H-testosterone (hereinafter referred to as ^3H-T) was diluted with ET buffer. Dihydrotestosterone (DHT) was prepared so as to have a concentration (final concentration 1 μM) 400 times the maximum concentration of ^3H-T (2.5 nM). The ^3H-T solution was added to a 1.5 ml tube containing DHT, no DHT, or various concentrations of a test compound. Further, 200 μg ARF was added to adjust the final volume to 100 μl. The mixture was incubated for 2 hours at 4° C., and then 300 μl of a 0.05% dextran T70-1.0% activated carbon solution was added. The mixture was further incubated for 15 minutes in ice to remove the free ^3H-T by adsorption. […] The mixture was stirred, allowed to stand, and measured for ^3H radioactivity with a liquid scintillation counter.

CC(C)(CNC(=O)c1ccc(OC(F)(F)F)cc1)[C@H]1Nc2ccc(C#N)cc2[C@H]2CCC[C@H]21 (relative stereo) [Example 1, (3aR*,4S*,9bS*)-N-[2-(8-cyano-2,3,3a,4,5,9b-hexahydro-1H-cyclopenta[c]quinolin-4-yl)-2-methylpropyl]-4-trifluoromethoxybenzamide]
Femoral bone mineral density ([1]; 30 mg/kg s.c. once daily): 137 ± 7 mg/cm^2
Levator ani muscle weight ([1]; 30 mg/kg s.c. once daily): 60 ± 6 mg/100 g body weight
Prostate weight ([1]; 30 mg/kg s.c. once daily): 70 ± 13 mg/100 g body weight
weight of the prostate relative to that in the sham control group ([1]; 30 mg/kg s.c.): about 74%

CC(C)(CNC(=O)c1ccc(OCC(F)(F)F)cc1)[C@H]1Nc2ccc(C#N)cc2[C@H]2CCC[C@H]21 (relative stereo) [Example 8, (3aR*,4S*,9bS*)-N-[2-(8-Cyano-2,3,3a,4,5,9b-hexahydro-1H-cyclopenta[c]quinolin-4-yl)-2-methylpropyl]-4-(2,2,2-trifluoroethoxy)benzamide]
Femoral bone mineral density ([2]; 30 mg/kg s.c. once daily): 136 ± 3 mg/cm^2
Levator ani muscle weight ([2]; 30 mg/kg s.c. once daily): 58 ± 6 mg/100 g body weight
Prostate weight ([2]; 30 mg/kg s.c. once daily): 62 ± 10 mg/100 g body weight
weight of the prostate relative to that in the sham control group ([2]; 30 mg/kg s.c.): about 50%

CC(C)(CNC(=O)c1ccc(NC=O)cc1)[C@H]1Nc2ccc(C#N)cc2[C@H]2CCC[C@H]21 (relative stereo) [Example 16, (3aR*,4S*,9bS*)-N-[2-(8-Cyano-2,3,3a,4,5,9b-hexahydro-1H-cyclopenta[c]quinolin-4-yl)-2-methylpropyl]-4-formylaminobenzamide]
weight of the prostate relative to that in the sham control group [3]: about 90%
Femoral bone mineral density ([3]; 7 days per week, DEXA, right femur, Mean ± SD): 136 ± 10 mg/cm^2
Levator ani muscle weight ([3]; 7 days per week, Mean ± SD): 60 ± 6 mg/100 g body weight
Prostate weight ([3]; 7 days per week, Mean ± SD): 90 ± 24 mg/100 g body weight
RBA (relative binding inhibition rate, Relative Binding Affinity) [4]: 406

CC(=O)Nc1ccc(C(=O)NCC(C)(C)[C@H]2Nc3ccc(C#N)cc3[C@H]3CCC[C@H]32)cn1 (relative stereo) [Example 23, (3aR*,4S*,9bS*)-6-Acetamido-N-[2-(8-cyano-2,3,3a,4,5,9b-hexahydro-1H-cyclopenta[c]quinolin-4-yl)-2-methylpropyl]nicotinamide]
Femoral bone mineral density ([2]; 30 mg/kg s.c. once daily): 137 ± 5 mg/cm^2
Levator ani muscle weight ([2]; 30 mg/kg s.c. once daily): 72 ± 6 mg/100 g body weight
Prostate weight ([2]; 30 mg/kg s.c. once daily): 111 ± 14 mg/100 g body weight
weight of the prostate relative to that in the sham control group ([2]; 30 mg/kg s.c.): about 90%
RBA (relative binding inhibition rate, Relative Binding Affinity) [4]: 420

C[C@]12CCC(=O)C[C@@H]1CC[C@@H]1[C@@H]2CC[C@]2(C)[C@@H](O)CC[C@@H]12 [DHT, dihydrotestosterone, reference compound]
Femoral bone mineral density ([2]; 10 mg/kg s.c. once daily): 138 ± 6 mg/cm^2
Levator ani muscle weight ([2]; 10 mg/kg s.c. once daily): 85 ± 9 mg/100 g body weight
Prostate weight ([2]; 10 mg/kg s.c. once daily): 162 ± 27 mg/100 g body weight
weight of the prostate relative to that in the sham control group ([2]; 10 mg/kg s.c.): about 130%
Femoral bone mineral density ([1]; 10 mg/kg s.c. once daily): 138 ± 6 mg/cm^2
Levator ani muscle weight ([1]; 10 mg/kg s.c. once daily): 74 ± 6 mg/100 g body weight
Prostate weight ([1]; 10 mg/kg s.c. once daily): 166 ± 33 mg/100 g body weight
weight of the prostate relative to that in the sham control group ([1]; 10 mg/kg s.c.): about 175%
